Reference: patent US8952024B2, “Herbicidal pyrimidone derivatives” (E I du Pont de Nemours and Company, priority 2009, dated 2015)
Read-outs that look alike come from different tables or passages of the source.

Assays:
Assay in all cases: Test B pre-/postemergence plant response
Type in all cases: in vivo
[1] = test system: morningglory (Ipomoea coccinea); conditions: for pest or weed control at 125 g/ha: 125 g ai/ha
Method in brief: (§1)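 Greenhouse herbicide screen. Pre- and postemergence (1- to 4-leaf) spray of compound in solvent/surfactant mixture; loam–sand soil for pre, peat/vermiculite medium for post. Visual control rating 0–100 at 13 to 15 days after treatment.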

corn (Zea mays) = conditions: for Corn plant response rating (crop injury, 0 = no effect, 100 = complete kill) at 31 g/ha: 31 g ai/ha; for Corn plant response rating (crop injury, 0 = no effect, 100 = complete kill) at 62 g/ha: 62 g ai/ha; for Corn plant response rating (crop injury, 0 = no effect, 100 = complete kill) at 125 g/ha: 125 g ai/ha
Method in brief: as §1

[2] = test system: cocklebur (Xanthium strumarium); conditions: Preemergence
Method in brief: as §1

[3] = test system: bermudagrass (Cynodon dactylon); conditions: for pest or weed control at 31 g/ha: 31 g ai/ha; for pest or weed control at 62 g/ha: 62 g ai/ha; for pest or weed control at 125 g/ha: 125 g ai/ha
Method in brief: as §1

wild oat (Avena fatua) = conditions: for pest or weed control at 31 g/ha: 31 g ai/ha; for pest or weed control at 62 g/ha: 62 g ai/ha; for pest or weed control at 125 g/ha: 125 g ai/ha
Method in brief: as §1

[4] = test system: blackgrass (Alopecurus myosuroides); conditions: for pest or weed control at 31 g/ha: 31 g ai/ha; for pest or weed control at 62 g/ha: 62 g ai/ha; for pest or weed control at 125 g/ha: 125 g ai/ha
Method in brief: as §1

[5] = test system: johnsongrass (Sorghum halepense)
Method in brief: as §1

[6] = Preemergence, 250 g ai/ha, 0 to 100 scale
[7] = Zea mays, pre-emergence, Preemergence, scale 0 to 100 (0 no effect, 100 complete control)
[8] = Cynodon dactylon, pre-emergence, Preemergence, scale 0 to 100 (0 no effect, 100 complete control), read-out: Plant response rating, Bermudagrass
[9] = Avena fatua, pre-emergence, Preemergence, scale 0 to 100 (0 no effect, 100 complete control), read-out: Plant response rating, Oat, Wild
[10] = Alopecurus myosuroides, pre-emergence, 360 h, Preemergence, scale 0 to 100 (0 no effect, 100 complete control), read-out: Plant response rating, Blackgrass

## COCCn1c(-c2cc(F)cc(F)c2)ncc(C(=O)C2=C(O)C3CCC(C3)C2=O)c1=O (centres unmarked) [Compound 243, 2-(3,5-difluorophenyl)-5-[(2-hydroxy-4-oxobicyclo[3.2.1]oct-2-en-3-yl)carbonyl]-3-(2-methoxyethyl)-4(3H)-pyrimidinone]
[1]; Ipomoea, post-emergence, Postemergence, 31 g ai/ha, 0 to 100 scale (0 no effect, 100 complete control), read-out: Plant response rating, Morningglory
  pest or weed control at 31 g/ha: 95%
[1]; Ipomoea, post-emergence, Postemergence, 62 g ai/ha, scale 0 to 100 (0 no effect, 100 complete control), read-out: Plant response rating, Morningglory
  pest or weed control at 62 g/ha: 100%
[1]; Ipomoea, post-emergence, Postemergence, scale 0 (no effect) to 100 (complete control), 13 to 15 days, read-out: Plant response rating, Morningglory
  pest or weed control at 125 g/ha: 100%
[1]; Ipomoea, post-emergence, Postemergence, 250 g ai/ha, scale 0 to 100 (0 no effect, 100 complete control), 13 to 15 days, read-out: Plant response rating, Morningglory
  pest or weed control at 250 g/ha: 100%
[1]; Ipomoea, pre-emergence, Preemergence, scale 0 to 100, 0 no effect, 100 complete control, read-out: Plant response rating, Morningglory
  pest or weed control at 125 g/ha: 98%
[1]; [6]
  Morningglory plant response rating: 100
Corn (Zea mays); [6]
  Corn plant response rating: 95
Corn (Zea mays); Zea mays, post-emergence, Postemergence, 0 to 100 scale (0 no effect, 100 complete control)
  Corn plant response rating (crop injury, 0 = no effect, 100 = complete kill) at 31 g/ha: 90%
Corn (Zea mays); Zea mays, post-emergence, Postemergence, scale 0 to 100 (0 no effect, 100 complete control)
  Corn plant response rating (crop injury, 0 = no effect, 100 = complete kill) at 62 g/ha: 95%
Corn (Zea mays); Zea mays, post-emergence, Postemergence, scale 0 (no effect) to 100 (complete control), 13 to 15 days
  Corn plant response rating (crop injury, 0 = no effect, 100 = complete kill) at 125 g/ha: 100%
Corn (Zea mays); Zea mays, post-emergence, Postemergence, 250 g ai/ha, scale 0 to 100 (0 no effect, 100 complete control), 13 to 15 days
  Corn plant response rating (crop injury, 0 = no effect, 100 = complete kill) at 250 g/ha: 100%
Corn (Zea mays); [7]
  Corn plant response rating (crop injury, 0 = no effect, 100 = complete kill) at 31 g/ha: 65%
  Corn plant response rating (crop injury, 0 = no effect, 100 = complete kill) at 62 g/ha: 75%
Corn (Zea mays); Zea mays, pre-emergence, Preemergence, scale 0 to 100, 0 no effect, 100 complete control
  Corn plant response rating (crop injury, 0 = no effect, 100 = complete kill) at 125 g/ha: 85%
[2]; 250 g ai/ha, 0 to 100 scale
  Cocklebur plant response rating: 98
[2]; Xanthium strumarium, pre-emergence, 62 g ai/ha, scale 0 to 100 (0 no effect, 100 complete control), read-out: Plant response rating, Cocklebur
  pest or weed control at 62 g/ha: 75%
[2]; Xanthium strumarium, pre-emergence, 125 g ai/ha, scale 0 to 100, 0 no effect, 100 complete control, read-out: Plant response rating, Cocklebur
  pest or weed control at 125 g/ha: 95%
[3]; Cynodon dactylon, post-emergence, Postemergence, 0 to 100 scale (0 no effect, 100 complete control), read-out: Plant response rating, Bermudagrass
  pest or weed control at 31 g/ha: 98%
[3]; Cynodon dactylon, post-emergence, Postemergence, scale 0 to 100 (0 no effect, 100 complete control), read-out: Plant response rating, Bermudagrass
  pest or weed control at 62 g/ha: 98%
[3]; Cynodon dactylon, post-emergence, Postemergence, scale 0 (no effect) to 100 (complete control), 13 to 15 days, read-out: Plant response rating, Bermudagrass
  pest or weed control at 125 g/ha: 100%
[3]; Cynodon dactylon, post-emergence, Postemergence, 250 g ai/ha, scale 0 to 100 (0 no effect, 100 complete control), 13 to 15 days, read-out: Plant response rating, Bermudagrass
  pest or weed control at 250 g/ha: 100%
[3]; [8]
  pest or weed control at 31 g/ha: 100%
  pest or weed control at 62 g/ha: 100%
[3]; Cynodon dactylon, pre-emergence, Preemergence, scale 0 to 100, 0 no effect, 100 complete control, read-out: Plant response rating, Bermudagrass
  pest or weed control at 125 g/ha: 100%
[3]; Preemergence, 250 g ai/ha, 0 to 100 scale, 0 no effect, 100 complete control
  Bermudagrass plant response rating: 100
Wild oat (Avena fatua); Avena fatua, post-emergence, Postemergence, 0 to 100 scale (0 no effect, 100 complete control), read-out: Plant response rating, Oat, Wild
  pest or weed control at 31 g/ha: 80%
Wild oat (Avena fatua); Avena fatua, post-emergence, Postemergence, scale 0 to 100 (0 no effect, 100 complete control), read-out: Plant response rating, Oat, Wild
  pest or weed control at 62 g/ha: 85%
Wild oat (Avena fatua); Avena fatua, post-emergence, Postemergence, scale 0 (no effect) to 100 (complete control), 13 to 15 days, read-out: Plant response rating, Oat, Wild
  pest or weed control at 125 g/ha: 85%
Wild oat (Avena fatua); Avena fatua, post-emergence, Postemergence, 250 g ai/ha, scale 0 to 100 (0 no effect, 100 complete control), 13 to 15 days, read-out: Plant response rating, Oat, Wild
  pest or weed control at 250 g/ha: 100%
Wild oat (Avena fatua); [9]
  pest or weed control at 31 g/ha: 30%
  pest or weed control at 62 g/ha: 85%
Wild oat (Avena fatua); Avena fatua, pre-emergence, Preemergence, scale 0 to 100, 0 no effect, 100 complete control, read-out: Plant response rating, Oat, Wild
  pest or weed control at 125 g/ha: 85%
Wild oat (Avena fatua); [6]
  Oat, Wild plant response rating: 90
[4]; Alopecurus myosuroides, post-emergence, 360 h, Postemergence, 0 to 100 scale (0 no effect, 100 complete control), read-out: Plant response rating, Blackgrass
  pest or weed control at 31 g/ha: 60%
[4]; Alopecurus myosuroides, post-emergence, 360 h, Postemergence, scale 0 to 100 (0 no effect, 100 complete control), read-out: Plant response rating, Blackgrass
  pest or weed control at 62 g/ha: 80%
[4]; Alopecurus myosuroides, post-emergence, 360 h, Postemergence, scale 0 (no effect) to 100 (complete control), 13 to 15 days, read-out: Plant response rating, Blackgrass
  pest or weed control at 125 g/ha: 85%
[4]; Alopecurus myosuroides, post-emergence, 360 h, Postemergence, 250 g ai/ha, scale 0 to 100 (0 no effect, 100 complete control), 13 to 15 days, read-out: Plant response rating, Blackgrass
  pest or weed control at 250 g/ha: 98%
[4]; [10]
  pest or weed control at 31 g/ha: 0%
  pest or weed control at 62 g/ha: 10%
[4]; Alopecurus myosuroides, pre-emergence, 360 h, Preemergence, scale 0 to 100, 0 no effect, 100 complete control, read-out: Plant response rating, Blackgrass
  pest or weed control at 125 g/ha: 70%
[4]; [6]
  Blackgrass plant response rating: 95
[5]; [6]
  Johnsongrass plant response rating: 100
[5]; Sorghum halepense, post-emergence, Postemergence, 31 g ai/ha, 0 to 100 scale (0 no effect, 100 complete control), read-out: Plant response rating, Johnsongrass
  pest or weed control at 31 g/ha: 100%
[5]; Sorghum halepense, post-emergence, Postemergence, 62 g ai/ha, scale 0 to 100 (0 no effect, 100 complete control), read-out: Plant response rating, Johnsongrass
  pest or weed control at 62 g/ha: 100%
